The target of assay [1] is T1, Gag-Pol polyprotein [588-1027] (Human immunodeficiency virus type 1 group M subtype B (isolate HXB2), UniProt P04585).
T1 construct: 588-1027
As to the kind of experiment: HIV-1 Reverse Transcriptase Assay. As to conditions: pH 8; 30 °C. An excerpt: (§1) IC50s were obtained from the inhibition of the RNA-dependent DNA polymerase activity of the HIV-1 reverse transcriptase enzyme using a primer extension assay. EC50s were obtained from inhibition of virus-induced cell-death in MT-4 cells.

Assay [2] addresses T2, Gag-Pol polyprotein [588-1027,K691N,Y769C]/[588-1147,K691N,Y769C] (Human immunodeficiency virus 1, UniProt P04585, K691N/Y769C).
T2 construct: 588-1027; 588-1147
As to the kind of experiment: HIV-1 Reverse Transcriptase Assay. Conditions: pH 8; 30 °C.
Text: as §1

From BindingDB's records for doi:10.1021/jm800527x (Roche Palo Alto, 2008) come the findings set out here.

What is called EC50 is the concentration needed to bring the measured effect to its halfway point. A higher EC50 goes with weaker potency.

The structures appear in SMILES notation.

On to `N#Cc1cc(Cl)cc(Oc2c(Br)ccc(Cc3n[nH]c4nccnc34)c2F)c1` [3-(6-bromo-2-fluoro-3-{1H-pyrazolo[3,4-b]pyrazin-3-ylmethyl}phenoxy)-5-chlorobenzonitrile], for which the results for the EC50 in assay [1] and in assay [2] were greater than 25 nM and greater than 100 nM, respectively.
Regarding `Cc1cc(C#N)cc(Oc2ccc(Cc3n[nH]c4nnccc34)cc2Br)c1` [3-(2-bromo-4-{1H-pyrazolo[3,4-c]pyridazin-3-ylmethyl}phenoxy)-5-methylbenzonitrile], the EC50 in assay [2] was greater than 100 nM.
